The values below are quoted from earlier work in patent US20020132013A1, “Liquid cautery catheter” (priority 2001, published 2002).

For data set [1], the system named is hemorrhagic radiation induced proctitis. As to conditions: topical application.
In data set [2] the test system is uterocomual tubal junction.

In the case of `C=O` [formalin], the “efficacy in control of bleeding” value in data set [1] was “demonstrated the efficacy”.

For `C=C(C#N)C(=O)OC` [Methyl 2-cyanoacrylate], the complications reported entry in data set [2] (35 healthy, parous women) was “No complications were reported”. The “bilateral tubal occlusion, share of study participants” value in data set [2] (35 healthy, parous women, hysterosalpingography 4 months after the procedure) is recorded as 88.2%. Besides, the “pregnancies reported in participants who demonstrated tubal occlusion” value in data set [2] (participants with tubal occlusion) was “no pregnancies reported”.
